Measurements published in patent publication US4810648A, “Haloarylnitrile degrading gene, its use, and cells containing the gene” (Rhone Poulenc Agrochimie, priority 1987, dated 1989).

Tests used:
N#Cc1cc(Br)c(O)c(Br)c1 = test: Kinetics of purified wild-type bromoxynil-specific nitrilase; type: biochemical, Klebsiella pneumoniae sub-species ozaenae; conditions: other: purified nit-wt, substrate not given, 30.0 °C
Description: All four colonies were grown in 200 mls L-broth containing 0.05% bromoxynil. Cells were disrupted with a French press, the high speed supernatants dialyzed against buffer containing 0.05M KPO, pH7.5; 2.5 mM dithiothreitol (DTT) and the individual crude extracts assayed for bromoxynil specific nitrilase activity. […] Cells (200 ml) were grown at 30° C. to mid log phase in M9 medium (Miller (1972) Experiments in Molecular Genetics, Cold Spring Harbor Laboratory) containing 0.1% glucose and 0.04% bromoxynil. Crude extracts were prepared by cell disruption, ultracentrifugation and dialysis of the supernatant in buffer containing 0.05M KPO4 pH 7.5 and 2.5 mM DTT. Substrate concentarion was 3 mM bromoxynil in all assays. Release of NH3 was monitored according to Harper Biochem. J. (1977) 167:685-692. The ability of K. ozaenae variant to grow in L-broth containing bromoxynil may result in acquired impermeability of the organism to the compound. However, the organism cannot grow in defined media utilizing bromoxynil as sole nitrogen source.
(§1) Nitrilase was prepared from stationary phase MM 294 E. coli cells containing the pBrx9, pBrx11 or pBrx28 plasmids. Cultures were grown under ampicillin selection until the whole cell nitrilase assay yielded an OD640 of approximately 2.0. Cultures were centrifuged at 8,000 xg for 15 min at 4° C. […]

[1] = molecular target: T1, Klebsiella ozaenae bromoxynil-specific nitrilase, N-terminal modified variant nit-23 (pBrx23) (Klebsiella pneumoniae, UniProt P10045); test: Kinetics of purified N-terminal modified nitrilase; type: biochemical, Klebsiella pneumoniae sub-species ozaenae; conditions: purified nit-23
T1 construct: natural N-terminus truncated (Bal31, about 51 nt removed) and replaced by 17 pUC19-encoded residues; purified enzyme
Description: Plasmid pBrx9 was digested with BamH1, followed by resection with Bal31 for about 5 min to remove about 51 nt. The enzyme was inactivated, the resected linear DNA sequence ligated with BamH1 linkers, digested with BamH1 and recircularized under ligating conditions. […] This fragment was inserted into pCGN 566 which had been completely digested with BamH1 and SmaI to produce plasmid pBrx23, of 3.7Kb. Plasmid pCGN 566 is a derivative of pUC13 with polylinkers from pUC18 and pUC19 and the chloramphenicol resistance gene. The fragment from pBrx15 is inserted to be in reading frame with an upstream initiation codon and where 17 amino acids encoded by the pUC19 sequence replace amino acids of the naturally occurring nitrilase.
The following provides the sequence of the N-terminal modified nitrilase (nit-23). [drawing 3] Purification of the Wild-Type and Altered Nitrilase
as §1, with “C. The cells were washed in 0.1M potassium phosphate buffer pH 7.4, repelleted, dried, and frozen at -20° C. The pellet was thawed at 4° C. and resuspended in 40 ml 50 mM potassium phosphate buffer with 1 mM dithiothreitol, 0.1 mM EDTA (KDE).” for “C.”

tobacco leaf sections = test: Tobacco leaf sections in bromoxynil containing media under photoautotrophic conditions; type: cell-based, Nicotiana tabacum cv. "Xanthi"
Description: The plasmids were transformed into A, tumefaciens strain LBA4404, followed by co-cultivation with tobacco (Nicotiana tabacum cv. "Xanthi") cotyledonary explants. Kanamycin-resistant shoots were regenerated into tobacoo plants in accordance with conventional techniques.
Approximately 5 mm leaf section from surface-sterilized (10% hypochloriate; water-washed) leaves were suspended in bromoxynil containing media under photoautotrophic conditions. The media employed was MS salts containing 0.93 mg/l naphthylacetic acid and 0.11 mg/l benzylaminopurine, with varying amounts of bromoxynil. The concentration of bromoxynil varied from 10^-3 to 10^-6 M at 0.1 dilutions. The photoautotrophic conditions were 5% CO2, 10% O2, 85% N2. Control tobacco leaf sections which had not been transformed were bleached (inhibited) at 10^-6 M bromoxynil. By contrast, transformed leaf sections expressing the bromoxynil-specific nitrilase from plasmids pBrx39 and pBrx40 were resistant to 10^-5 M and 10^-4 M bromoxynil, respectively.

tomato leaf sections = test: Tomato leaf sections in bromoxynil-containing medium under photoautotrophic conditions; type: cell-based, Lycopersicon esculentum cv. UC828
Description: Co-cultivation of tomato (Lycopersicon esculentum cv. UC828) cotyledonary explants was carried out as described previously with tobacco and kanamycin shoots regenerated. […] Approximately 5 mm leaf sections from surface-sterilized(10% hypochlorite; water washed) leaves were suspended in bromoxynil-containing medium at varying concentrations under photoautotrophic conditions. The media was MS salts containing 2 mg/l […], 1 mg/l isopentyladenine and 100 mg/l myoinositol and bromoxynil at 10^-5 or 10^-6 M. The same photoautotrophic conditions were employed as described for tobacco. […] Transgenic tomato plants (10-20 leaf stage) were sprayed with a commercial formulation of bromoxynil (BUCTRIL) and found to be resistant at 0.5 lbs/acre.

## Klebsiella ozaenae bromoxynil-specific nitrilase, wild type (nit-wt, from pBrx9) (Klebsiella pneumoniae subsp. ozaenae)
N#Cc1cc(Br)c(O)c(Br)c1
  Km: 310 µM

## N#Cc1cc(Br)c(O)c(Br)c1 [bromoxynil, 3,5-dibromo-4-hydroxybenzonitrile]
[1]
  Km: 110 µM
  Vmax: 9 µmol/min/mg
Tobacco leaf sections; Nicotiana tabacum, control tobacco leaf sections, not transformed, read-out: concentration at which leaf sections were bleached (inhibited)
  minimal effective concentration: 1 µM
Tobacco leaf sections; transformed tobacco leaf sections expressing nitrilase from pBrx39
  concentration to which leaf sections were resistant: 10^-5 M
Tobacco leaf sections; transformed tobacco leaf sections expressing nitrilase from pBrx40
  concentration to which leaf sections were resistant: 10^-4 M
Tomato leaf sections; Solanum lycopersicum, control tomato leaf sections, not transformed, read-out: concentration at which leaf sections were bleached
  minimal effective concentration: 1 µM
Tomato leaf sections; transformed tomato expressing nitrilase gene from pBrx29
  concentration to which leaf sections were resistant: 10^-5 M
